Test results published in US20260062422A1 (Halda Therapeutics OpCo, Inc., priority 2022, published 2026).

What was measured:
[1] = test system: T47D cells; test: Cellular growth inhibition assay for T47D cells, CellTiter-Glo; format: cell-based, human; conditions: Homo sapiens, T47D, 72 h, 72 hours treatment, CellTiter-Glo 2.0 cell viability
In short: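 Cells are plated at 3000/well and allowed 24 h before treatment. Test compound in medium containing 0.5% DMSO is then added, with DMSO-only wells as negative control, and plates are incubated 72 h at 37 °C. ATP luminescence (CellTiter-Glo 2.0) is then fitted to four parameters to derive GI50.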

[2] = test system: T-Rex 293 cell line SC3 cells having increased expression of androgen receptor protein due to exposure to doxycycline; test: Cellular growth inhibition, T-Rex 293 SC3 cells with doxycycline (androgen receptor induced), CellTiter-Glo; format: cell-based; conditions: T-Rex 293 SC3 cells with 10 ng/mL doxycycline (increased androgen receptor expression)
In short: (§1)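 With DMSO (0.5%) vehicle as negative control, compounds treated SC3 cells for 72 h in medium containing charcoal-dextran FBS ± doxycycline. This T-Rex 293 clone expresses transfected wild-type AR on induction. Readout: CellTiter-Glo 2.0; GI50 by nonlinear regression.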

[3] = test system: T-Rex 293 cell line SC3 cells lacking increased expression of androgen receptor protein; test: Cellular growth inhibition, T-Rex 293 SC3 cells without doxycycline, CellTiter-Glo; format: cell-based; conditions: 72 h, T-Rex 293 SC3 cells not exposed to doxycycline, CellTiter-Glo 2.0
In short: as §1

[4] = test system: VCaP cells; test: Cellular growth inhibition assay for VCaP cells, CellTiter-Glo; format: cell-based, human; conditions: Homo sapiens, VCaP, 72 h, 72 hours treatment, CellTiter-Glo 2.0
In short: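 GI50 values come from four-parameter curve fits of luminescence data normalized to a zero baseline. Compound, in medium with 0.5% DMSO, was added one day after plating and left for 72 h before CellTiter-Glo 2.0 addition.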

SMILES	GI50 [1]	GI50 [4]	GI50 ([2]; 72 h)	GI50 [3]	GI50 ([2]; 72 hours)
Cc1sc2c(c1C)C(c1ccc(CN3CC[C@@]4(CCCN(c5ncc(C(=O)N[C@H]6C(C)(C)[C@H](Oc7ccc(C#N)c(Cl)c7)C6(C)C)cn5)C4)C3)cc1)=N[C@@H](Cc1ncco1)c1nnc(C)n1-2 [Compound I-144]	0.5 to 1.5 µM	< 0.5 µM	< 0.5 µM	< 0.5 µM	–
Cc1sc2c(c1C)C(c1ccc(C(=O)N3CCCC(C(=O)c4ncc(C(=O)N[C@H]5C(C)(C)[C@H](Oc6ccc(C#N)c(Cl)c6)C5(C)C)cn4)C3)cc1)=N[C@H](Cc1ncco1)c1nnc(C)n1-2 (some centres unmarked) [Compound I-346]	> 3 µM	0.5 to 1.5 µM	< 0.5 µM	> 3 µM	–
Cc1sc2c(c1C)C(c1ccc(N3CCC(CNC(=O)c4ncc(C(=O)N[C@H]5C(C)(C)[C@H](Oc6ccc(C#N)c(Cl)c6)C5(C)C)cn4)CC3)cc1)C[C@@H](Cc1ncco1)c1nnc(C)n1-2 (some centres unmarked) [Compound I-276]	> 3 µM	1.5 to 3 µM	> 3 µM	> 3 µM	–
Cc1sc2c(c1C)C(c1ccc(OC3CC4(C3)C[C@H](C)N(c3ncc(C(=O)N[C@H]5C(C)(C)[C@H](Oc6ccc(C#N)c(Cl)c6)C5(C)C)cn3)[C@@H](C)C4)cc1)=N[C@@H](Cc1ncco1)c1nnc(C)n1-2 (some centres unmarked) [Compound I-282]	< 0.5 µM	> 3 µM	< 0.5 µM	> 3 µM	–
Cc1sc2c(c1C)C(c1ccc(CCNC(=O)NCc3ncc(C(=O)N[C@H]4C(C)(C)[C@H](Oc5ccc(C#N)c(Cl)c5)C4(C)C)cn3)cc1)=N[C@H](Cc1ncco1)c1nnc(C)n1-2 [Compound I-330]	1.5 to 3 µM	0.5 to 1.5 µM	< 0.5 µM	> 3 µM	–
CCNC(=O)C[C@@H]1N=C(c2ccc(OCCC3CCN(c4ncc(C(=O)N[C@H]5C(C)(C)[C@H](Oc6ccc(C#N)c(Cl)c6)C5(C)C)cn4)CC3)cc2)c2c(sc(C)c2C)-n2c(C)nnc21 [Compound I-69]	0.5 to 1.5 µM	< 0.5 µM	< 0.5 µM	< 0.5 µM	–
Cc1sc2c(c1C)C(c1ccc(C[C@H]3C[C@@]4(CCCN(c5ncc(C(=O)N[C@H]6C(C)(C)[C@H](Oc7ccc(C#N)c(Cl)c7)C6(C)C)cn5)C4)C3)cc1)=N[C@@H](Cc1ncco1)c1nnc(C)n1-2 [Compound I-156]	> 3 µM	> 3 µM	< 0.5 µM	> 3 µM	–
CCNC(=O)C[C@@H]1N=C(c2ccc(CN3CC4CN(c5ncc(C(=O)N[C@H]6C(C)(C)[C@H](Cc7ccc(C#N)c(Cl)c7)C6(C)C)cn5)CC4C3)cc2)c2c(sc(C)c2C)-n2c(C)nnc21 (some centres unmarked) [Compound I-94]	0.5 to 1.5 µM	< 0.5 µM	< 0.5 µM	0.5 to 1.5 µM	–
Cc1sc2c(c1C)C(c1ccc(O[C@H]3CC[C@@]4(CCN(c5ncc(C(=O)N[C@H]6C(C)(C)[C@H](Oc7ccc(C#N)c(Cl)c7)C6(C)C)cn5)C4)CC3)cc1)=N[C@@H](Cc1ncco1)c1nnc(C)n1-2 [Compound I-179]	0.5 to 1.5 µM	< 0.5 µM	< 0.5 µM	< 0.5 µM	–
Cc1sc2c(c1C)C(c1ccc(CNC(=O)CNC(=O)c3ncc(C(=O)N[C@H]4C(C)(C)[C@H](Oc5ccc(C#N)c(Cl)c5)C4(C)C)cn3)cc1)=N[C@@H](Cc1ncco1)c1nnc(C)n1-2 [Compound I-292]	> 3 µM	0.5 to 1.5 µM	> 3 µM	> 3 µM	–
Cc1sc2c(c1C)C(c1ccc(C(=O)N3CCC(N(C)c4ncc(C(=O)N[C@H]5C(C)(C)[C@H](Oc6ccc(C#N)c(Cl)c6)C5(C)C)cn4)CC3)cc1)=N[C@@H](Cc1ncco1)c1nnc(C)n1-2 [Compound I-293]	> 3 µM	> 3 µM	< 0.5 µM	> 3 µM	–

Second part, led by results:

GI50 [1]	GI50 [4]	SMILES	GI50 ([2]; 72 h)	GI50 [3]	GI50 ([2]; 72 hours)
< 0.5 µM	< 0.5 µM	Cc1sc2c(c1C)C(c1ccc(OC3CC4(CCN(c5ncc(C(=O)N[C@H]6C(C)(C)[C@H](Oc7ccc(C#N)c(Cl)c7)C6(C)C)cn5)CC4)C3)cc1F)=N[C@@H](Cc1ncco1)c1nnc(C)n1-2 [Compound I-457, N-[3-(3-chloro-4-cyano-phenoxy)-2,2,4,4-tetramethyl-cyclobutyl]-2-[2-[3-fluoro-4-[(9S)-4,5,13-trimethyl-9-(oxazol-2-ylmethyl)-3-thia-1,8,11,12-tetrazatricyclo[8.3.0.02,6]trideca-2(6),4,7,10,12-pentaen-7-yl]phenoxy]-7-azaspiro [3.5]nonan-7-yl]pyrimidine-5-carboxamide]	< 0.5 µM	< 0.5 µM	–
> 3 µM	> 3 µM	Cc1sc2c(c1C)C(c1ccc(C(=O)N3CCC[C@@H](C(=O)c4ncc(C(=O)N[C@H]5C(C)(C)[C@H](Oc6ccc(C#N)c(Cl)c6)C5(C)C)cn4)C3)cc1)=N[C@H](Cc1ncco1)c1nnc(C)n1-2 [Compound I-364]	< 0.5 µM	> 3 µM	–
< 0.5 µM	< 0.5 µM	Cc1sc2c(c1C)C(c1ccc(C[C@H]3C[C@@H](OC4CCN(c5ncc(C(=O)N[C@H]6C(C)(C)[C@H](Oc7ccc(C#N)c(Cl)c7)C6(C)C)cn5)CC4)C3)cc1)=N[C@@H](Cc1ncco1)c1nnc(C)n1-2 [Compound I-426]	< 0.5 µM	> 3 µM	–
< 0.5 µM	< 0.5 µM	Cc1sc2c(c1C)C(c1ccc(C#CC3CC4(C3)CN(c3ncc(C(=O)N[C@H]5C(C)(C)[C@H](Oc6ccc(C#N)c(Cl)c6)C5(C)C)cn3)C4)cc1)=N[C@@H](C)c1nnc(C)n1-2 [Compound I-349]	< 0.5 µM	< 0.5 µM	–
< 0.5 µM	< 0.5 µM	Cc1sc2c(c1C)C(c1ccc(-n3ccc(C4CCN(c5ncc(C(=O)N[C@H]6C(C)(C)[C@H](Oc7ccc(C#N)c(Cl)c7)C6(C)C)cn5)CC4)n3)cc1)=N[C@@H](Cc1ncco1)c1nnc(C)n1-2 [Compound I-441]	< 0.5 µM	0.5 to 1.5 µM	–
0.5 to 1.5 µM	< 0.5 µM	Cc1sc2c(c1C)C(c1ccc(N3CCC[C@@H](OCCc4ncc(C(=O)N[C@H]5C(C)(C)[C@H](Oc6ccc(C#N)c(Cl)c6)C5(C)C)cn4)C3)cc1)=N[C@@H](Cc1ncco1)c1nnc(C)n1-2 [Compound I-451]	< 0.5 µM	0.5 to 1.5 µM	–
> 3 µM	> 3 µM	Cc1sc2c(c1C)C(c1ccc([C@H]3C[C@@H]([C@@H]4CCN(c5ncc(C(=O)N[C@H]6C(C)(C)[C@H](Oc7ccc(C#N)c(Cl)c7)C6(C)C)cn5)C4)C3)cc1)=N[C@@H](Cc1ncco1)c1nnc(C)n1-2 [Compound I-413]	> 3 µM	> 3 µM	–
0.5 to 1.5 µM	< 0.5 µM	Cc1sc2c(c1C)C(c1ccc(CN(C)C(=O)[C@@H]3CC[C@H](c4ncc(C(=O)N[C@H]5C(C)(C)[C@H](Oc6ccc(C#N)c(Cl)c6)C5(C)C)cn4)C3)cc1)=N[C@@H](Cc1ncco1)c1nnc(C)n1-2 [Compound I-371]	< 0.5 µM	> 3 µM	–
> 3 µM	> 3 µM	Cc1sc2c(c1C)C(c1ccc([C@H]3C[C@H]([C@H]4CCCN(c5ncc(C(=O)N[C@H]6C(C)(C)[C@H](Oc7ccc(C#N)c(Cl)c7)C6(C)C)cn5)C4)C3)cc1)=N[C@@H](Cc1ncco1)c1nnc(C)n1-2 [Compound I-420]	> 3 µM	> 3 µM	–
> 3 µM	> 3 µM	Cc1sc2c(c1C)C(c1ccc(C(=O)N3CCC(C(=O)c4ncc(C(=O)N[C@H]5C(C)(C)[C@H](Oc6ccc(C#N)c(Cl)c6)C5(C)C)cn4)CC3)cc1)=N[C@@H](Cc1ncco1)c1nnc(C)n1-2 [Compound I-381]	–	> 3 µM	> 3 µM
0.5 to 1.5 µM	< 0.5 µM	Cc1sc2c(c1C)C(c1ccc(N(C)CC(=O)N3CCC(c4ncc(C(=O)N[C@H]5C(C)(C)[C@H](Oc6ccc(C#N)c(Cl)c6)C5(C)C)cn4)CC3)cc1)=N[C@H](Cc1ncco1)c1nnc(C)n1-2 [Compound I-356]	< 0.5 µM	> 3 µM	–
> 3 µM	< 0.5 µM	CC[C@@H]1N=C(c2ccc(OC3CC4(C3)CC3(CCN(c5ncc(C(=O)N[C@H]6C(C)(C)[C@H](Oc7ccc(C#N)c(Cl)c7)C6(C)C)cn5)CC3)C4)cc2)c2c(sc(C)c2C)-n2c(C)nnc21 [Compound I-606]	< 0.5 µM	> 3 µM	–
< 0.5 µM	< 0.5 µM	Cc1sc2c(c1C)C(c1ccc(NCCC3CCCN(c4ncc(C(=O)N[C@H]5C(C)(C)[C@H](Oc6ccc(C#N)c(Cl)c6)C5(C)C)cn4)C3)cc1)=N[C@@H](Cc1ncco1)c1nnc(C)n1-2 (some centres unmarked) [Compound I-652]	< 0.5 µM	< 0.5 µM	–
> 3 µM	< 0.5 µM	COC[C@@H]1N=C(c2ccc(OC3CC4(CCCN(c5ncc(C(=O)N[C@H]6C(C)(C)[C@@H](Oc7ccc(C#N)c(Cl)c7)C6(C)C)cn5)C4)C3)cc2)c2c(sc(C)c2C)-n2c(C)nnc21 [Compound I-567]	< 0.5 µM	> 3 µM	–
< 0.5 µM	< 0.5 µM	Cc1sc2c(c1C)C(c1ccc(N3C[C@@H]4[C@H](C3)[C@H]4Nc3ncc(C(=O)N[C@H]4C(C)(C)[C@H](Oc5ccc(C#N)c(Cl)c5)C4(C)C)cn3)cc1)=N[C@@H](Cc1ncco1)c1nnc(C)n1-2 [Compound I-657]	< 0.5 µM	< 0.5 µM	–
